What all share (test): NCI tumour cell line growth inhibition, 48 h
In test [1] the test system is HOP-18 NSCLC.
The test system of test [2] is SNB-75 CNS.
Test [3] relates to SN12C renal.
Test [4] relates to MOLT-4 leukemia.
Test [5] relates to OVCAR-8 ovarian.
Test [6] has as its system SK-OV-3 ovarian.
Test [7] deals with RPMI-8226 leukemia.
In test [8] the test system is M19-MEL melanoma.
The test system of test [9] is PC-3 prostate.
Test [10] concerns DU-145 prostate.

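Compound exposure: 48 hours, 5 concentrations, 96-well plates. GI50: concentration for 50% inhibition of growth. At the TGI there is no net growth.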 A value given as a limit tells only on which side of the number the result lay.

As for `CC1=C(C(=O)Nc2cc(=O)n(C)c(=O)n2C)C(c2ccc([N+](=O)[O-])cc2)C(C(=O)Nc2cc(=O)n(C)c(=O)n2C)=C(C)N1`, the TGI in [1], in [2], in test [3], in test [4], in test [5] and in test [6] was more than 100 µM throughout. The TGI in test [7] and in test [8] was more than 100 µM throughout.
As to `CN(CCc1ccccn1)c1nc(=[N+](C)C)ss1`, the TGI in test [1], in test [2], in [3], in [4], in test [5] and in [6] was more than 100 µM each time. In addition, the TGI in [7] and in [8] was more than 100 µM each time.
Consider `COc1cc2c(cc1OC)C(OC)N(C)c1c-2ccc2cc3c(cc12)OCO3` (configuration not stated), for which the TGI in test [1] worked out at 68.5 µM; in [2] it was 5.53 µM; in [3], 21.1 µM; in test [4] it was 16.1 µM; in test [5], 21.6 µM; in test [6], 2.53 µM. For the same molecule, the TGI in [9] was more than 75 µM; in test [7], 13.4 µM; in [10], more than 75 µM; in test [8], 4.08 µM.
For `CC(=O)C1C(=O)NC(=O)C1=O` (configuration not stated), the TGI in test [1], in test [2], in test [3], in [5], in test [6] and in test [7] was more than 100 µM in each case. The TGI in test [8] was more than 100 µM.
Consider `C[C@@H](CN1CC(=O)NC(=O)C1)N1CC(=O)NC(=O)C1`, for which the TGI in test [1] is 1180 µM; in test [2], 929 µM; in test [3], 906 µM; in test [4] it was 821 µM; in test [5] it was 747 µM; in [6], 1870 µM. Moreover, the TGI in test [9] was found to be 1450 µM; in test [7] it was 2300 µM; in test [10] it was 1430 µM; in [8], 998 µM.
As to `O=C1c2ccccc2NC1(c1ccccc1)c1c(-c2ccccc2)[nH]c2ccccc12` (configuration not stated), the TGI was more than 100 µM in [1]; more than 100 µM in [2]; more than 100 µM in test [3]; 20.6 µM in test [4]; more than 100 µM in test [5]; more than 100 µM in test [6]. Besides, the TGI in [7] and in [8] was more than 100 µM in each case.
As to `CC1=C(C(=O)NCc2ccccc2)C(c2ccc([N+](=O)[O-])cc2)C(C(=O)NCc2ccccc2)=C(C)N1`, the TGI in test [1] was more than 100 µM; in test [2] it was more than 100 µM; in [3], more than 100 µM; in [5] it was more than 100 µM; in test [8] it was 52.7 µM.
For `CN(CC#N)C1CCCC[C@H]1O` (some centres not stated), the TGI in test [1], in [2], in test [3], in test [4], in [5] and in test [6] was more than 100 µM each time. In [7], the TGI is more than 100 µM.
For the molecule `CN1C(c2ccccc2)CS(=O)(=O)CS1(=O)=O` (configuration not stated), the TGI in [1], in test [2], in [3], in test [5], in test [6] and in [8] was more than 100 µM in each case.
Turning to `O=C(Cc1csc(-c2nc(CC(=O)NNc3ccccc3)cs2)n1)NNc1ccccc1`, the TGI in [1], in [2], in test [3], in [4], in [5] and in test [6] was more than 100 µM each time. Further, the TGI in test [7] and in test [8] was more than 100 µM throughout.
With `CC(=O)[O-].[Mn+3].[O-]c1ccccc1C=NCCN=Cc1ccccc1[O-]`, the GI50 in test [1] is more than 100 µM; in [2], more than 100 µM; in test [3] it was more than 100 µM; in test [4], 25.7 µM; in test [5], more than 100 µM; in test [8] it was 44.2 µM. For the same molecule, the TGI in test [1], in test [2], in test [3], in test [4], in test [5] and in test [8] was more than 100 µM each time.
For `NCCN.NCCN.O=C[O-].O=C[O-].[Co+3].[O-][Cl+3]([O-])([O-])[O-]`, the GI50 in test [1], in test [2], in test [3], in test [4], in [5] and in [6] was more than 100 µM in each case. In addition, the GI50 in [7] and in [8] was more than 100 µM in each case. Also, the TGI in test [1], in test [2], in [3], in test [4], in [5] and in [6] was more than 100 µM in each case. Besides, the TGI in test [7] and in [8] was more than 100 µM each time.
As for `CCOC(=O)C(=O)Nc1ccc(Cl)cc1C`, the TGI in test [1], in test [2], in test [3], in test [4], in [5] and in test [6] was more than 100 µM throughout. In addition, the TGI in test [7] and in test [8] was more than 100 µM in each case.
Take `O=C(CC1(O)C(=O)Nc2ccccc21)c1ccco1` (configuration not stated): the TGI in [2], in [3], in test [4], in test [5], in test [6] and in [7] was more than 100 µM each time. The molecule also had a TGI in test [8] of more than 100 µM.
With `COC(=O)CCC(=O)Nc1cc(Cl)ccc1Cl`, the TGI in test [1], in test [3], in test [4], in test [5], in test [6] and in test [7] was more than 100 µM in each case. In [8], this molecule came in with a TGI of more than 100 µM.
Turning to `COc1ccc(C[C@@H]2NC[C@@H](O)[C@@H]2OC(C)=O)cc1`, the TGI in test [1] was 6.35 µM; in test [2], 0.0692 µM; in test [5] it was 0.112 µM; in test [9], 0.255 µM; in test [10], 0.0947 µM; in test [8], more than 100 µM. For the same molecule, the GI50 in [3] was 3.19 µM; in [4] it was 2.81 µM; in test [5], 3.48 µM; in test [7] it was 1.79 µM.
For `CN(C)/N=C(/c1nc2ccc([N+](=O)[O-])cc2[nH]c1=O)C(O)c1ccco1` (configuration not stated), the TGI in test [2], in test [3], in [4], in [5], in test [6] and in test [7] was more than 100 µM throughout. The same molecule gave a TGI in [8] of more than 100 µM.
As for `O=C(O)/C(Cl)=C(\Cl)C(=O)NC1C2CC3CC(C2)CC1C3` (configuration not stated), the TGI in test [1], in test [2], in test [3], in test [4], in [5] and in test [6] was more than 100 µM throughout. In addition, the TGI in test [7] and in [8] was more than 100 µM in each case.
In the case of `COc1ccc(C(=O)C(c2ccc(OC)cc2)C2OC(=O)C(Cl)=C2Cl)cc1` (configuration not stated), the TGI in [1], in [3], in test [4], in test [5], in test [6] and in test [7] was more than 100 µM throughout. The same molecule returned a TGI in test [8] of more than 100 µM.
`CC(=O)OC1CC2Oc3ccc(C)cc3C(C)(O2)C1=O` (configuration not stated): the TGI in test [1], in test [2], in test [3], in [4], in test [5] and in [6] was more than 100 µM throughout. The TGI in [7] and in test [8] was more than 100 µM each time.
As for `Cc1ccc(NC(=O)C(=O)CC(=O)C2CCOC2=O)c(C)c1` (configuration not stated), the TGI in test [1], in [2], in test [3], in test [5], in test [6] and in [7] was more than 100 µM each time.
On to `COc1cc(O)c2c(c1)C(=O)C=C(Cl)C2=O`, for which the TGI in test [1], in test [2], in test [4], in test [5], in [6] and in [7] was more than 100 µM in each case. In [8], this molecule had a TGI of more than 100 µM.
Consider `O=C(Nc1cccc(Cc2cccc(NC(=O)c3ccccc3)c2)c1)c1ccccc1`, for which the TGI in [1] was more than 100 µM; in [2] it was 27.5 µM; in test [3] it was more than 100 µM; in test [4], more than 100 µM; in test [5], more than 100 µM; in test [6], 62.5 µM. Moreover, the TGI in test [8] is more than 100 µM.
For `O/N=C1/C(=C/c2ccc(Oc3ccccc3)cc2)CCCC1C(NO)c1ccc(Oc2ccccc2)cc1` (configuration not stated), the TGI in [1] is more than 100 µM; in test [2] it was more than 100 µM; in [3] it was 96.7 µM; in [4] it was 33.2 µM; in [5], more than 100 µM; in test [6], more than 100 µM. For the same molecule, the results for the TGI in test [7] and in [8] were 76.1 µM and more than 100 µM, respectively.
As to `CC1(C)OB(O)OC1(C)C`, the TGI in [1], in [2], in test [3], in test [4], in test [5] and in [6] was more than 100 µM throughout. In test [7], the TGI is more than 100 µM.
